Source: PMC2990605 (British Journal of Cancer, 2010)

Assay: Adverse events (CTCAEv3.0), worst grade per patient regardless of relation, and laboratory parameters
Assay type: in vivo
Details: for Alanine aminotransferase increased, CTCAE grade 5, patients / Alopecia, CTCAE grade 5, patients / Anaemia, CTCAE grade 5, patients / Anorexia, CTCAE grade 5, patients / Arthralgia, CTCAE grade 5, patients / Back pain, CTCAE grade 5, patients / Blood bilirubin, CTCAE grade 5, patients / Bronchitis, CTCAE grade 5, patients / Constipation, CTCAE grade 5, patients / Cough, CTCAE grade 5, patients / Cystitis, CTCAE grade 5, patients / Dehydration, CTCAE grade 5, patients / Diabetes mellitus, CTCAE grade 5, patients / Diarrhoea, CTCAE grade 5, patients / Dizziness, CTCAE grade 5, patients / Drug hypersensitivity, CTCAE grade 5, patients / Dry skin, CTCAE grade 5, patients / Dyspnoea, CTCAE grade 5, patients / Eosinophilic myocarditis, CTCAE grade 5, patients / Erythema, CTCAE grade 5, patients / Fatigue, CTCAE grade 5, patients / Gastric dilatation, CTCAE grade 5, patients / General physical health deterioration, CTCAE grade 5, patients / Hypercalcaemia, CTCAE grade 5, patients / Hyperglycaemia, CTCAE grade 5, patients / Hyperhidrosis, CTCAE grade 5, patients / Leukopenia, CTCAE grade 5, patients / Malaise, CTCAE grade 5, patients / Mucosal inflammation, CTCAE grade 5, patients / Myalgia, CTCAE grade 5, patients / Nasopharyngitis, CTCAE grade 5, patients / Nausea, CTCAE grade 5, patients / Neutropenia, CTCAE grade 5, patients / Oedema peripheral, CTCAE grade 5, patients / Oedema, CTCAE grade 5, patients / Peripheral sensory neuropathy, CTCAE grade 5, patients / Pollakiuria, CTCAE grade 5, patients / Pruritus, CTCAE grade 5, patients / Pulmonary embolism, CTCAE grade 5, patients / Pyrexia, CTCAE grade 5, patients / Rash, CTCAE grade 5, patients / Spinal cord compression, CTCAE grade 5, patients / Tumour pain, CTCAE grade 5, patients / Urinary tract infection, CTCAE grade 5, patients / Vomiting, CTCAE grade 5, patients / γ-glutamyltransferase increased, CTCAE grade 5, patients: with paclitaxel
Method: Toxicity was evaluated according to common toxicity criteria for adverse events (CTCAEv3.0). The MTD was defined as the dose level(s) at which at least two out of six patients developed DLT.
Toxicity assessment, haematology and clinical biochemistry were performed at baseline and weekly during the study. Physical and ECOG performance status were recorded at baseline and before the next cycle.

Compound: CC(C)C[C@@H](C(=O)N[C@H](C(=O)OC1CCCC1)c1ccccc1)[C@H](O)C(=O)NO [tosedostat]
- Alanine aminotransferase increased, CTCAE grade 5, patients (all cycles): 0
- Alopecia, CTCAE grade 5, patients (all cycles): 0
- Anaemia, CTCAE grade 5, patients (all cycles): 0
- Anorexia, CTCAE grade 5, patients (all cycles): 0
- Arthralgia, CTCAE grade 5, patients (all cycles): 0
- Back pain, CTCAE grade 5, patients (all cycles): 0
- Blood bilirubin, CTCAE grade 5, patients (all cycles): 0
- Bronchitis, CTCAE grade 5, patients (all cycles): 0
- Constipation, CTCAE grade 5, patients (all cycles): 0
- Cough, CTCAE grade 5, patients (all cycles): 0
- Cystitis, CTCAE grade 5, patients (all cycles): 0
- Dehydration, CTCAE grade 5, patients (all cycles): 0
- Diabetes mellitus, CTCAE grade 5, patients (all cycles): 0
- Diarrhoea, CTCAE grade 5, patients (all cycles): 0
- Dizziness, CTCAE grade 5, patients (all cycles): 0
- Drug hypersensitivity, CTCAE grade 5, patients (all cycles): 0
- Dry skin, CTCAE grade 5, patients (all cycles): 0
- Dyspnoea, CTCAE grade 5, patients (all cycles): 0
- Eosinophilic myocarditis, CTCAE grade 5, patients (all cycles): 1
- Erythema, CTCAE grade 5, patients (all cycles): 0
- Fatigue, CTCAE grade 5, patients (all cycles): 0
- Gastric dilatation, CTCAE grade 5, patients (all cycles): 0
- General physical health deterioration, CTCAE grade 5, patients (all cycles): 0
- Hypercalcaemia, CTCAE grade 5, patients (all cycles): 0
- Hyperglycaemia, CTCAE grade 5, patients (all cycles): 0
- Hyperhidrosis, CTCAE grade 5, patients (all cycles): 0
- Leukopenia, CTCAE grade 5, patients (all cycles): 0
- Malaise, CTCAE grade 5, patients (all cycles): 0
- Mucosal inflammation, CTCAE grade 5, patients (all cycles): 0
- Myalgia, CTCAE grade 5, patients (all cycles): 0
- Nasopharyngitis, CTCAE grade 5, patients (all cycles): 0
- Nausea, CTCAE grade 5, patients (all cycles): 0
- Neutropenia, CTCAE grade 5, patients (all cycles): 0
- Oedema peripheral, CTCAE grade 5, patients (all cycles): 0
- Oedema, CTCAE grade 5, patients (all cycles): 0
- Peripheral sensory neuropathy, CTCAE grade 5, patients (all cycles): 0
- Pollakiuria, CTCAE grade 5, patients (all cycles): 0
- Pruritus, CTCAE grade 5, patients (all cycles): 0
- Pulmonary embolism, CTCAE grade 5, patients (all cycles): 0
- Pyrexia, CTCAE grade 5, patients (all cycles): 0
- Rash, CTCAE grade 5, patients (all cycles): 0
- Spinal cord compression, CTCAE grade 5, patients (all cycles): 0
- Tumour pain, CTCAE grade 5, patients (all cycles): 0
- Urinary tract infection, CTCAE grade 5, patients (all cycles): 0
- Vomiting, CTCAE grade 5, patients (all cycles): 0
- γ-glutamyltransferase increased, CTCAE grade 5, patients (all cycles): 0
- Alanine aminotransferase increased, CTCAE grade 5, patients (first 21 days): 0
- Alopecia, CTCAE grade 5, patients (first 21 days): 0
- Anaemia, CTCAE grade 5, patients (first 21 days): 0
- Anorexia, CTCAE grade 5, patients (first 21 days): 0
- Arthralgia, CTCAE grade 5, patients (first 21 days): 0
- Back pain, CTCAE grade 5, patients (first 21 days): 0
- Blood bilirubin, CTCAE grade 5, patients (first 21 days): 0
- Bronchitis, CTCAE grade 5, patients (first 21 days): 0
- Constipation, CTCAE grade 5, patients (first 21 days): 0
- Cough, CTCAE grade 5, patients (first 21 days): 0
- Cystitis, CTCAE grade 5, patients (first 21 days): 0
- Dehydration, CTCAE grade 5, patients (first 21 days): 0
- Diabetes mellitus, CTCAE grade 5, patients (first 21 days): 0
- Diarrhoea, CTCAE grade 5, patients (first 21 days): 0
- Dizziness, CTCAE grade 5, patients (first 21 days): 0
- Drug hypersensitivity, CTCAE grade 5, patients (first 21 days): 0
- Dry skin, CTCAE grade 5, patients (first 21 days): 0
- Dyspnoea, CTCAE grade 5, patients (first 21 days): 0
- Eosinophilic myocarditis, CTCAE grade 5, patients (first 21 days): 0
- Erythema, CTCAE grade 5, patients (first 21 days): 0
- Fatigue, CTCAE grade 5, patients (first 21 days): 0
- Gastric dilatation, CTCAE grade 5, patients (first 21 days): 0
- General physical health deterioration, CTCAE grade 5, patients (first 21 days): 0
- Hypercalcaemia, CTCAE grade 5, patients (first 21 days): 0
- Hyperglycaemia, CTCAE grade 5, patients (first 21 days): 0
- Hyperhidrosis, CTCAE grade 5, patients (first 21 days): 0
- Leukopenia, CTCAE grade 5, patients (first 21 days): 0
- Malaise, CTCAE grade 5, patients (first 21 days): 0
- Mucosal inflammation, CTCAE grade 5, patients (first 21 days): 0
- Myalgia, CTCAE grade 5, patients (first 21 days): 0
- Nasopharyngitis, CTCAE grade 5, patients (first 21 days): 0
- Nausea, CTCAE grade 5, patients (first 21 days): 0
- Neutropenia, CTCAE grade 5, patients (first 21 days): 0
- Oedema peripheral, CTCAE grade 5, patients (first 21 days): 0
- Oedema, CTCAE grade 5, patients (first 21 days): 0
- Peripheral sensory neuropathy, CTCAE grade 5, patients (first 21 days): 0
- Pollakiuria, CTCAE grade 5, patients (first 21 days): 0
- Pruritus, CTCAE grade 5, patients (first 21 days): 0
- Pulmonary embolism, CTCAE grade 5, patients (first 21 days): 0
- Pyrexia, CTCAE grade 5, patients (first 21 days): 0
- Rash, CTCAE grade 5, patients (first 21 days): 0
- Spinal cord compression, CTCAE grade 5, patients (first 21 days): 0
- Tumour pain, CTCAE grade 5, patients (first 21 days): 0
- Urinary tract infection, CTCAE grade 5, patients (first 21 days): 0
- Vomiting, CTCAE grade 5, patients (first 21 days): 0
- γ-glutamyltransferase increased, CTCAE grade 5, patients (first 21 days): 0
- Alanine aminotransferase increased, CTCAE grade 1, patients (human, in vivo): 1
- Alanine aminotransferase increased, CTCAE grade 2, patients (human, in vivo): 1
- Alanine aminotransferase increased, CTCAE grade 3, patients (human, in vivo): 1
- Alanine aminotransferase increased, CTCAE grade 4, patients (human, in vivo): 0
- Alanine aminotransferase increased, patients with events, % (human, in vivo): 14%
- Alopecia, CTCAE grade 2, patients (human, in vivo): 20
- Alopecia, CTCAE grade 3, patients (human, in vivo): 0
- Alopecia, CTCAE grade 4, patients (human, in vivo): 0
- Alopecia, patients with events, % (human, in vivo): 95%
- Anaemia, CTCAE grade 1, patients (human, in vivo): 1
- Anaemia, CTCAE grade 4, patients (human, in vivo): 0
- Anorexia, CTCAE grade 1, patients (human, in vivo): 6
- Anorexia, CTCAE grade 2, patients (human, in vivo): 2
- Anorexia, CTCAE grade 3, patients (human, in vivo): 2
- Anorexia, CTCAE grade 4, patients (human, in vivo): 0
- Anorexia, patients with events, % (human, in vivo): 45%
- Arthralgia, CTCAE grade 1, patients (human, in vivo): 5
- Arthralgia, CTCAE grade 2, patients (human, in vivo): 0
- Arthralgia, CTCAE grade 3, patients (human, in vivo): 0
- Arthralgia, CTCAE grade 4, patients (human, in vivo): 0
- Arthralgia, patients with events, % (human, in vivo): 23%
- Back pain, CTCAE grade 1, patients (human, in vivo): 3
- Back pain, CTCAE grade 2, patients (human, in vivo): 2
- Back pain, CTCAE grade 3, patients (human, in vivo): 0
- Back pain, CTCAE grade 4, patients (human, in vivo): 0
- Back pain, patients with events, % (human, in vivo): 23%
- Blood bilirubin, CTCAE grade 1, patients (human, in vivo): 0
- Blood bilirubin, CTCAE grade 2, patients (human, in vivo): 0
- Blood bilirubin, CTCAE grade 3, patients (human, in vivo): 1
- Blood bilirubin, CTCAE grade 4, patients (human, in vivo): 0
- Blood bilirubin, patients with events, % (human, in vivo): 5%
- Bronchitis, CTCAE grade 1, patients (human, in vivo): 0
- Bronchitis, CTCAE grade 2, patients (human, in vivo): 0
- Bronchitis, CTCAE grade 3, patients (human, in vivo): 1
- Bronchitis, CTCAE grade 4, patients (human, in vivo): 0
- Bronchitis, patients with events, % (human, in vivo): 5%
- Constipation, CTCAE grade 1, patients (human, in vivo): 3
- Constipation, CTCAE grade 2, patients (human, in vivo): 3
- Constipation, CTCAE grade 3, patients (human, in vivo): 0
- Constipation, CTCAE grade 4, patients (human, in vivo): 0
- Constipation, patients with events, % (human, in vivo): 27%
- Cough, CTCAE grade 1, patients (human, in vivo): 8
- Cough, CTCAE grade 2, patients (human, in vivo): 1
